Results as given in paper PMC7770833, “Design, Synthesis, and Biological Evaluation of a Series of Oxazolone Carboxamides as a Novel Class of Acid Ceramidase Inhibitors” (Journal of Medicinal Chemistry, 2020).
In brackets after ≈: the same amount, converted by molar mass. Counter-ions that a name gives are not always drawn. Blank lines part the entries; values can stand above or below the molecule they belong to.

What was measured:
hAC [1] = conditions: cited from earlier work
hAC [2] = biological target: T1, hAC (Homo sapiens, UniProt Q13510); experiment: Fluorogenic hAC assay (hAC-enriched HEK293 lysate); format: biochemical; set-up: expressed in transfected cells; lysosome-enriched lysate; conditions: for hAC, IC50 (micromicrolar): supplementary CSV; for hAC inhibition, result in words: concentrations tested 1 and 10 μM where stated
T1 sequence (Q13510 22-395): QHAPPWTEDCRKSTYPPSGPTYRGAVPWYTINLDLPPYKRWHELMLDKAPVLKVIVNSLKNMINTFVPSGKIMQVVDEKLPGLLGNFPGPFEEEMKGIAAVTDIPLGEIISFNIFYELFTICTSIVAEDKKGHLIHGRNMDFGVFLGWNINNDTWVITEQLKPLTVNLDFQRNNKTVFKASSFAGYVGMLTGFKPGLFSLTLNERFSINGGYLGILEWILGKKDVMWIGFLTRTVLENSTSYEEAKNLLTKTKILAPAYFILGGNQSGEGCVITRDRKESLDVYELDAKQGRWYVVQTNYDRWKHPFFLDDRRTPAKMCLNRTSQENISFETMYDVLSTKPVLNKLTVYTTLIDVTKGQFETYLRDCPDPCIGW
Text: HEK293 cells stably expressing hAC (HEK293-hAC) were generated in our laboratory using a protocol, as previously described.[30] Briefly, hAC (variant 1 coding sequence, NM_177924) cDNA was purchased from Open Biosystems (clone ID 3923451) and subcloned in the mammalian expression vector pCDNA3.1, containing the neomycin resistance gene. HEK293 cells were transfected with the hAC-pCDNA3.1 construct using a JetPEI reagent (Polyplus Transfection, Illkirch-Graffenstaden, France) and following the manufacturer’s instructions. A stable cell line was generated by selection with G418 (1 mg/mL), and cell clones were derived by limited dilution plating. HEK293-hAC were grown in Dulbecco’s modified Eagle medium (DMEM) containing 10% fetal bovine serum (FBS), 1% glutamine, 1 mM sodium pyruvate, and 500 μg/mL G418. Cells were harvested and pellets were stored at −80 °C until lysosomal-enriched lysate preparation. Cells were suspended in 20 mM Tris HCl (pH 7.5) with 0.32 M sucrose, sonicated, and centrifuged at 800 × g for 30 min at 4 °C. Supernatants were then centrifuged at 12 000 × g for 30 min at 4 °C. Pellets were re-suspended in PBS (pH 7.4) and subjected to three freeze–thaw cycles at −80 °C. The suspension was finally centrifuged at 105 000 × g for 1 h at 4 °C, and protein concentration was measured in the supernatant with a bicinchoninic acid based protein assay. This hAC-enriched preparation allowed us to further optimize the enzymatic assay and to use small amounts of lysate (2 μg/well) at the 5 μM substrate (Rbm14-12) around its KM (KM = 5.0 μM).
The assay was performed in Optiplate 96-wells black plates, with each reaction well containing a mixture of 25 mM NaOAc buffer (pH 4.5) and a fixed amount of protein (2 μg) in a volume of 85 μL. After 10 min of pre-incubation with the test compounds (diluted 20× from DMSO stock solutions at different concentrations), the fluorogenic probe was added (diluted 40× from EtOH stock solution, final concentration 5 μM). After 3 h incubation at 37 °C, reactions were stopped with 50 μL of MeOH and 100 μL of a 2.5 mg/mL NaIO4 fresh solution in 100 mM glycine/NaOH buffer (pH 10.6). The plates were further incubated for 2 h at 37 °C in the dark and fluorescence intensities were measured at excitation/emission wavelengths of 355/460 nm. Negative control samples consisted of the same incubation mixture in the absence of protein-enriched extracts. Data were plotted as a function of compound concentrations. IC50 values were calculated by nonlinear regression analysis using GraphPad Prism 5 (GraphPad Software Inc., CA, USA) applying a standard slope curve fitting. The reported IC50 values are the mean of at least three independent experiments performed in three technical replicates.

hAC [3] = biological target: T1, hAC; experiment: Michaelis–Menten analysis of hAC; format: biochemical; set-up: expressed in transfected cells; lysosome-enriched lysate
Method: Assay conditions for the kinetic studies were the same as those described for the fluorogenic hAC assay. The enzyme-enriched lysate (2 μg) was incubated with the following concentrations of substrate Rbm14-12: 0.25, 0.5, 1, 2.5, 5, 10, 12.5, 15 μM. Compound 12a was used at a final concentration of 25 and 100 nM. Initial velocities (V0) were determined and automatically fitted to the Michaelis–Menten equation to obtain kinetic parameters (KM and Vmax). The graph is representative of two independent experiments, each performed in three technical replicates. Graphs and data analysis were performed using GraphPad Prism 5 software (GraphPad Software Inc., CA, USA).

rat AC (rAC) = conditions: cited from earlier work
[4] = Aqueous kinetic solubility assay; format: physicochemical; conditions: PBS pH 7.4
Method: The aqueous kinetic solubility was determined from a 10 mM CH3CN stock solution of the test compound in PBS at pH 7.4. The study was performed by the incubation of an aliquot of 10 mM CH3CN stock solution in PBS (pH 7.4) at a target concentration of 250 μM. The incubation was carried out under shaking at 25 °C for 1 h, followed by centrifugation at 21 100 × g for 30 min. The supernatant was analyzed by UPLC/MS for the quantification of the dissolved compound (in μM) by UV at a specific wavelength (215 nm). […] The UPLC/MS analyses were performed on a Waters Acquity UPLC/MS system consisting of SQDMS equipped with an ESI interface and a PDA detector. The PDA range was 210–400 nm. ESI in positive mode was used in the mass scan range 100–650 Da. The analyses were run on an Acquity UPLC BEH C18 column (50 × 2.1 mm ID, particle size 1.7 μm) with a VanGuard BEH C18 pre-column (5 × 2.1 mm ID, particle size 1.7 μm), using 10 mM NH4OAc in H2O at pH 5 adjusted with AcOH (A) and 10 mM NH4OAc in CH3CN/H2O (95:5) at pH 5 (B) as the mobile phase. The values are the mean of at least two independent experiments performed in two technical replicates.

Structure (SMILES): Cc1ccc(CNC(=O)n2cnc3ccccc32)cc1 [Compound 3d]
IC50 (hAC [1]): 14.8 nM

Structure (SMILES): CCCCCCNC(=O)n1cc(F)c(=O)[nH]c1=O [carmofur]
IC50 (rat AC (rAC)): 29 nM

Structure (SMILES): COc1nc2ccccc2n1C(=O)NCCCCc1ccccc1 [Compound 3b]
IC50 (hAC [1]): 13.9 nM

Structure (SMILES): O=C(NCCCCc1ccccc1)n1cnc2ccccc21 [Compound 3a]
IC50 (hAC [1]): 2.5 nM

Structure (SMILES): CCCCCCNC(=O)n1cc(Cl)c(=O)[nH]c1=O [Compound 1a]
IC50 (rat AC (rAC)): 67 nM

Structure (SMILES): CC(C)CNC(=O)n1c(=O)oc2cc(C3CCN(C)CC3)ccc21 [Compound 4d]
IC50 (hAC [1]): 166 nM

Structure (SMILES): O=C(NCCCCc1ccccc1)n1c(=O)oc2cc(-c3ccc(F)cc3)ccc21 [Compound 4b]
IC50 (hAC [1]): 79 nM

Structure (SMILES): O=C(NCCCCc1ccccc1)n1c(=O)oc2ccccc21 [Compound 4a]
IC50 (hAC [1]): 64 nM

Structure (SMILES): CCCCCCNC(=O)n1cc(C(F)(F)F)c(=O)[nH]c1=O [Compound 1b]
IC50 (rat AC (rAC)): 12 nM

Structure (SMILES): CCCCCCNC(=O)n1cc(F)c(=O)n(C(=O)OCC(C)C)c1=O [Compound 1c]
IC50 (rat AC (rAC)): 16 nM

Structure (SMILES): O=C(NCc1ccccc1)n1cnc2ccccc21 [Compound 3c]
IC50 (hAC [1]): 22.5 nM

Structure (SMILES): O=C(NCCCCc1ccccc1)n1c(=O)oc2cc(Cl)ccc21 [Compound 4c]
IC50 (hAC [1]): 33 nM

Now from value to molecule:

hAC, IC50 (micromicrolar) (hAC [2]): not active up to 10 micromolar
Structure (SMILES): O=C(CCCCCc1ccccc1)n1cc(-c2ccccc2)oc1=O [Compound 13c, 5-Phenyl-3-(6-phenylhexanoyl)oxazol-2-one]

hAC inhibition, result in words (hAC [2]): complete loss in potency
hAC, IC50 (micromicrolar) (hAC [2]): not active up to 10 micromolar
Structure (SMILES): CC(C)CNC(=O)n1cc(-c2ccc(F)cc2C2CCN(C)CC2)oc1=O [Compound 32c, 5-[4-Fluoro-2-(1-methyl-4-piperidyl)phenyl]-N-isobutyl-2-oxo-oxazole-3-carboxamide Hydrochloride]

hAC Vmax (hAC [3]; 12a 25 nM): 18201 M/h
hAC Vmax (hAC [3]; 12a 100 nM): 12016 M/h
effect on Michaelis–Menten constant (KM) (hAC [3]; hAC-enriched lysates, in words): without influencing
effect on maximal catalytic velocity of AC (Vmax) (hAC [3]; hAC-enriched lysates, in words): concentration-dependent reduction
Structure (SMILES): O=C(NCCCCc1ccccc1)n1cc(-c2ccccc2)oc1=O [Compound 12a, 2-Oxo-5-phenyl-N-(4-phenylbutyl)oxazole-3-carboxamide]

hAC inhibition, result in words (hAC [2]): complete loss in potency
hAC, IC50 (micromicrolar) (hAC [2]): not active up to 10 micromolar
Structure (SMILES): COCCCNC(=O)n1cc(-c2ccccc2)oc1=O [Compound 12d, N-(3-Methoxypropyl)-2-oxo-5-phenyl-oxazole-3-carboxamide]

hAC, IC50 (micromicrolar) (hAC [2]): not active up to 10 micromolar
Structure (SMILES): O=C(NCCCCc1ccccc1)N1C[C@@H](c2ccccc2)OC1=O [Compound 18b, (5R)-(+)-2-Oxo-5-phenyl-N-(4-phenylbutyl)oxazolidine-3-carboxamide]

hAC, IC50 (micromicrolar) (hAC [2]): not active up to 10 micromolar
Structure (SMILES): O=C(NCCCCc1ccccc1)N1C(=O)OC[C@@H]1c1ccccc1 [Compound 15a, (4S)-(+)-2-Oxo-4-phenyl-N-(4-phenylbutyl)oxazolidine-3-carboxamide]

hAC, IC50 (micromicrolar) (hAC [2]): not active up to 10 micromolar
Structure (SMILES): O=c1[nH]cc(-c2ccccc2)o1 [Compound 11a, 5-Phenyl-3H-oxazol-2-one]

hAC inhibition, result in words (hAC [2]): not active up to 10 μM
hAC, IC50 (micromicrolar) (hAC [2]): not active up to 10 micromolar
Structure (SMILES): CCC(C)NC(=O)n1cc(-c2ccccc2)oc1=O (racemic) [Compound 12f, (±) 2-Oxo-5-phenyl-N-s-butyl-oxazole-3-carboxamide]

hAC inhibition, result in words (hAC [2]): complete loss in potency
hAC, IC50 (micromicrolar) (hAC [2]): not active up to 10 micromolar
Structure (SMILES): CC(C)CNC(=O)n1cc(-c2ccc(F)c(C3CCN(C)CC3)c2)oc1=O [Compound 25f, 5-[4-Fluoro-3-(1-methyl-4-piperidyl)phenyl]-N-isobutyl-2-oxo-oxazole-3-carboxamide]

hAC, IC50 (micromicrolar) (hAC [2]): not active up to 10 micromolar
Structure (SMILES): O=C(OCCCCc1ccccc1)n1cc(-c2ccccc2)oc1=O [Compound 13b, 4-Phenylbutyl-2-oxo-5-phenyl-oxazole-3-carboxylate]

hAC, IC50 (micromicrolar) (hAC [2]): not active up to 10 micromolar
Structure (SMILES): O=C(Nc1ccccc1)n1cc(-c2ccccc2)oc1=O [Compound 12g, 2-Oxo-N,5-diphenyl-oxazole-3-carboxamide]

hAC, IC50 (micromicrolar) (hAC [2]): not active up to 10 micromolar
Structure (SMILES): O=C(NCCCCc1ccccc1)N1C(=O)OC[C@H]1c1ccccc1 [Compound 15b, (4R)-(−)-2-Oxo-4-phenyl-N-(4-phenylbutyl)oxazolidine-3-carboxamide]

solubility at 1 h [4]: 248 µM (≈ 88.6 µg/mL)
Structure (SMILES): CN1CCC(c2cn(C(=O)NCCCCc3ccccc3)c(=O)o2)CC1 [Compound 12y, 5-(1-Methyl-4-piperidyl)-2-oxo-N-(4-phenylbutyl)oxazole-3-carboxamide]

IC50 (hAC [2]; fluorogenic substrate Rbm14-12 5 μM, pH 4.5, mean of at least three experiments, read-out: hAC IC50 (μM)±SD): 0.007 ± 0.001 µM
Structure (SMILES): O=C(NCCCCc1ccccc1)n1c(-c2ccccc2)coc1=O [Compound 8a, 2-Oxo-4-phenyl-N-(4-phenylbutyl)oxazole-3-carboxamide]

hAC IC50 (μM)±SD (hAC [2]; fluorogenic substrate Rbm14-12 5 μM, pH 4.5, mean of at least three experiments): submicromolar
Structure (SMILES): O=C(NCCCCc1ccccc1)n1cc(-c2ccc(F)cc2)oc1=O [Compound 12j, 5-(4-Fluorophenyl)-2-oxo-N-(4-phenylbutyl)oxazole-3-carboxamide]

hAC, IC50 (micromicrolar) (hAC [2]): not active up to 10 micromolar
Structure (SMILES): CN(CCCCc1ccccc1)C(=O)n1cc(-c2ccccc2)oc1=O [Compound 13a, N-Methyl-2-oxo-5-phenyl-N-(4-phenylbutyl)oxazole-3-carboxamide]

hAC, IC50 (micromicrolar) (hAC [2]): not active up to 10 micromolar
Structure (SMILES): CN1CCC(c2cc(F)ccc2-c2c[nH]c(=O)o2)CC1 [Compound 31c, 5-[4-Fluoro-2-(1-methyl-4-piperidyl)phenyl]-3H-oxazol-2-one]

hAC, IC50 (micromicrolar) (hAC [2]): not active up to 10 micromolar
Structure (SMILES): O=C(NCCCCc1ccccc1)N1C[C@H](c2ccccc2)OC1=O [Compound 18a, (5S)-(−)-2-Oxo-5-phenyl-N-(4-phenylbutyl)oxazolidine-3-carboxamide]
